# According to PubChem BioAssay (NCI):
#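 Method: 48-hour compound exposure of cells in 96-well plates, five concentrations, linear interpolation of endpoints. The concentration for 50% growth inhibition is given as GI50. Definition used: TGI = concentration required for complete inhibition of growth.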
# Key:
# Test in all cases: NCI tumour cell line growth inhibition, 48 h
# A549 NSCLC = test system: A549 NSCLC
# UO-31 renal = test system: UO-31 renal
# HOP-62 NSCLC = test system: HOP-62 NSCLC
# RPMI-8226 leukemia = test system: RPMI-8226 leukemia
# COLO 205 colon = test system: COLO 205 colon
# M14 melanoma = test system: M14 melanoma
# MDA-MB-435 = test system: MDA-MB-435
# T-47D breast = test system: T-47D breast
# HCT-116 colon = test system: HCT-116 colon
# CAKI-1 renal = test system: CAKI-1 renal
# OVCAR-8 ovarian = test system: OVCAR-8 ovarian
# HCC-2998 colon = test system: HCC-2998 colon
# HOP-92 NSCLC = test system: HOP-92 NSCLC
# 786-0 renal = test system: 786-0 renal
# MCF7 breast = test system: MCF7 breast
# MALME-3M melanoma = test system: MALME-3M melanoma
# EKVX NSCLC = test system: EKVX NSCLC
# SN12C renal = test system: SN12C renal
# MOLT-4 leukemia = test system: MOLT-4 leukemia
# UACC-62 melanoma = test system: UACC-62 melanoma
# SF-268 CNS = test system: SF-268 CNS
# NCI-H23 lung = test system: NCI-H23 lung
# A498 renal = test system: A498 renal
# SF-295 CNS = test system: SF-295 CNS
# CCRF-CEM leukemia = test system: CCRF-CEM leukemia
# HT29 colon = test system: HT29 colon
# RXF 393 renal = test system: RXF 393 renal
# SF-539 CNS = test system: SF-539 CNS
# SR leukemia = test system: SR leukemia
# BT-549 breast = test system: BT-549 breast
# OVCAR-3 ovarian = test system: OVCAR-3 ovarian
# SK-MEL-5 melanoma = test system: SK-MEL-5 melanoma
# NCI/ADR-RES ovarian = test system: NCI/ADR-RES ovarian
# SK-MEL-28 melanoma = test system: SK-MEL-28 melanoma
# SW-620 colon = test system: SW-620 colon
# OVCAR-5 ovarian = test system: OVCAR-5 ovarian
# OVCAR-4 ovarian = test system: OVCAR-4 ovarian
# SNB-19 CNS = test system: SNB-19 CNS
# UACC-257 melanoma = test system: UACC-257 melanoma
# ACHN renal = test system: ACHN renal
# DU-145 prostate = test system: DU-145 prostate
# PC-3 prostate = test system: PC-3 prostate
# SNB-75 CNS = test system: SNB-75 CNS
# HL-60(TB) leukemia = test system: HL-60(TB) leukemia
# LOX IMVI melanoma = test system: LOX IMVI melanoma
# HS 578T breast = test system: HS 578T breast
# KM12 colon = test system: KM12 colon
# NCI-H460 lung = test system: NCI-H460 lung
# HCT-15 colon = test system: HCT-15 colon
# NCI-H226 lung = test system: NCI-H226 lung
# IGROV1 ovarian = test system: IGROV1 ovarian
# TK-10 renal = test system: TK-10 renal
# SK-MEL-2 melanoma = test system: SK-MEL-2 melanoma
# NCI-H522 lung = test system: NCI-H522 lung
# K-562 leukemia = test system: K-562 leukemia
# MDA-MB-231 breast = test system: MDA-MB-231 breast
structure (smiles),measurement,setting,value
NCCCNc1nc2ccc(Cl)cc2c2c(=O)c3cc(F)ccc3sc12,GI50,A549 NSCLC,1.77 µM
same,TGI,A549 NSCLC,3.89 µM
same,GI50,UO-31 renal,3.35 µM
same,TGI,UO-31 renal,16.1 µM
same,GI50,HOP-62 NSCLC,6.47 µM
same,TGI,HOP-62 NSCLC,28.5 µM
same,GI50,RPMI-8226 leukemia,2.77 µM
same,TGI,RPMI-8226 leukemia,9.79 µM
same,GI50,COLO 205 colon,2.71 µM
same,TGI,COLO 205 colon,8.91 µM
same,GI50,M14 melanoma,3.6 µM
same,TGI,M14 melanoma,14.2 µM
same,GI50,MDA-MB-435,1.93 µM
same,TGI,MDA-MB-435,4.2 µM
same,GI50,T-47D breast,9.65 µM
same,TGI,T-47D breast,34.3 µM
same,GI50,HCT-116 colon,1.72 µM
same,TGI,HCT-116 colon,3.12 µM
same,GI50,CAKI-1 renal,6.39 µM
same,TGI,CAKI-1 renal,20.2 µM
same,GI50,OVCAR-8 ovarian,3.24 µM
same,TGI,OVCAR-8 ovarian,15.1 µM
same,GI50,HCC-2998 colon,1.89 µM
same,TGI,HCC-2998 colon,4.38 µM
same,GI50,HOP-92 NSCLC,1.58 µM
same,TGI,HOP-92 NSCLC,6.51 µM
same,GI50,786-0 renal,1.92 µM
same,TGI,786-0 renal,5.88 µM
same,GI50,MCF7 breast,1.68 µM
same,TGI,MCF7 breast,3.42 µM
same,GI50,MALME-3M melanoma,6.91 µM
same,TGI,MALME-3M melanoma,23.2 µM
same,GI50,EKVX NSCLC,6 µM
same,TGI,EKVX NSCLC,21.2 µM
same,GI50,SN12C renal,2.27 µM
same,TGI,SN12C renal,6.08 µM
same,GI50,MOLT-4 leukemia,1.87 µM
same,TGI,MOLT-4 leukemia,3.95 µM
same,GI50,UACC-62 melanoma,2.83 µM
same,TGI,UACC-62 melanoma,8.41 µM
same,GI50,SF-268 CNS,4.1 µM
same,TGI,SF-268 CNS,18.2 µM
same,GI50,NCI-H23 lung,5.61 µM
same,TGI,NCI-H23 lung,21.2 µM
same,GI50,A498 renal,6.1 µM
same,TGI,A498 renal,21 µM
same,GI50,SF-295 CNS,12 µM
same,TGI,SF-295 CNS,26.5 µM
same,GI50,CCRF-CEM leukemia,2.35 µM
same,TGI,CCRF-CEM leukemia,6.65 µM
same,GI50,HT29 colon,2.12 µM
same,TGI,HT29 colon,4.94 µM
same,GI50,RXF 393 renal,2.95 µM
same,TGI,RXF 393 renal,12.3 µM
same,GI50,SF-539 CNS,3.79 µM
same,TGI,SF-539 CNS,14.3 µM
same,GI50,SR leukemia,2.1 µM
same,TGI,SR leukemia,5.37 µM
same,GI50,BT-549 breast,14.3 µM
same,TGI,BT-549 breast,29.6 µM
same,GI50,OVCAR-3 ovarian,1.92 µM
same,TGI,OVCAR-3 ovarian,4.03 µM
same,GI50,SK-MEL-5 melanoma,13.6 µM
same,TGI,SK-MEL-5 melanoma,30.2 µM
same,GI50,NCI/ADR-RES ovarian,2.23 µM
same,TGI,NCI/ADR-RES ovarian,5.62 µM
same,GI50,SK-MEL-28 melanoma,10.1 µM
same,TGI,SK-MEL-28 melanoma,24.2 µM
same,GI50,SW-620 colon,1.74 µM
same,TGI,SW-620 colon,3.32 µM
same,GI50,OVCAR-5 ovarian,3.38 µM
same,TGI,OVCAR-5 ovarian,14.3 µM
same,GI50,OVCAR-4 ovarian,4.3 µM
same,TGI,OVCAR-4 ovarian,18 µM
same,GI50,SNB-19 CNS,9.43 µM
same,TGI,SNB-19 CNS,25.4 µM
same,GI50,UACC-257 melanoma,15.7 µM
same,TGI,UACC-257 melanoma,35.3 µM
same,GI50,ACHN renal,1.94 µM
same,TGI,ACHN renal,4 µM
same,GI50,DU-145 prostate,1.97 µM
same,TGI,DU-145 prostate,4.05 µM
same,GI50,PC-3 prostate,3.43 µM
same,TGI,PC-3 prostate,14.2 µM
same,GI50,SNB-75 CNS,4.15 µM
same,TGI,SNB-75 CNS,19.1 µM
same,GI50,HL-60(TB) leukemia,3.13 µM
same,TGI,HL-60(TB) leukemia,10.7 µM
same,GI50,LOX IMVI melanoma,1.57 µM
same,TGI,LOX IMVI melanoma,2.95 µM
same,GI50,HS 578T breast,3.22 µM
same,TGI,HS 578T breast,17.7 µM
same,GI50,KM12 colon,1.77 µM
same,TGI,KM12 colon,3.43 µM
same,GI50,NCI-H460 lung,1.73 µM
same,TGI,NCI-H460 lung,3.46 µM
same,GI50,HCT-15 colon,1.71 µM
same,TGI,HCT-15 colon,3.48 µM
same,GI50,NCI-H226 lung,8.58 µM
same,TGI,NCI-H226 lung,25.1 µM
same,GI50,IGROV1 ovarian,1.91 µM
same,TGI,IGROV1 ovarian,5.1 µM
same,GI50,TK-10 renal,3.08 µM
same,TGI,TK-10 renal,11.1 µM
same,GI50,SK-MEL-2 melanoma,12.4 µM
same,TGI,SK-MEL-2 melanoma,33.3 µM
same,GI50,NCI-H522 lung,2.26 µM
same,TGI,NCI-H522 lung,5.67 µM
same,GI50,K-562 leukemia,1.74 µM
same,TGI,K-562 leukemia,3.73 µM
same,GI50,MDA-MB-231 breast,1.78 µM
same,TGI,MDA-MB-231 breast,4.09 µM
